These results are taken from patent US8158650B2, “Substituted phenylmethyl bicyclocarboxyamide compounds” (Pfizer Inc., priority 2006, dated 2012).

As usually defined, the IC50 is the concentration at which inhibition is half-maximal. A lower IC50 goes with greater potency in that assay.

Chain of human VR1 (Q8NER1 whole entry): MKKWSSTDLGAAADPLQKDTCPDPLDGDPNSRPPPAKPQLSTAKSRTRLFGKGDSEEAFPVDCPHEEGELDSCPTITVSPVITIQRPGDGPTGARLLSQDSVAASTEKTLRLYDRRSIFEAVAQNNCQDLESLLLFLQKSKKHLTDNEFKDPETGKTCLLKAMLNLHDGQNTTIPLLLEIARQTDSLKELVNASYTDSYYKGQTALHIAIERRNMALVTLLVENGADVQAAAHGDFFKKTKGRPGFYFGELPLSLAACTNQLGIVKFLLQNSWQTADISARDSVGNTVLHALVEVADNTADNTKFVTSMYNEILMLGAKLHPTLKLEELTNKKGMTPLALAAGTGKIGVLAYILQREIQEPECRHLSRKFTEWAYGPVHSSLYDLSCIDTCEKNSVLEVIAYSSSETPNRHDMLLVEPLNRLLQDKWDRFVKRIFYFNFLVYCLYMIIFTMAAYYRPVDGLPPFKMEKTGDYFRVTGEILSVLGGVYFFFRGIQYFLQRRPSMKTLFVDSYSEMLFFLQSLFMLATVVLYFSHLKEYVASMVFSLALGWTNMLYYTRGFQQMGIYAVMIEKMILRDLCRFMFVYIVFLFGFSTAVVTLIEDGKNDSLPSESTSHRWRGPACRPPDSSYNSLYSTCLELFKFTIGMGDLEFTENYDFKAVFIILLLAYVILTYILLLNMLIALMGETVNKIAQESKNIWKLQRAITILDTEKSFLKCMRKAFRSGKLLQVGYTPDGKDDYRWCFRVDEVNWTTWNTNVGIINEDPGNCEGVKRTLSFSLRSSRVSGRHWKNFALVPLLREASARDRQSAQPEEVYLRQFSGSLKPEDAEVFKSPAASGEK

The target of this assay is human VR1 (Homo sapiens, UniProt Q8NER1). Description: Human VR1 antagonist assay (Ca2+ imaging). Particulars: intracellular Ca2+ imaging (fura-2) in cells expressing human VR1 receptors; stimulus (capsaicin or acid) not given. The class given is cell-based. The text has this:
VR1 antagonistic activity can be determined by the Ca^2+ imaging assay using human VR1 highly expressing cells. The cells that highly express human VR1 receptors are obtainable from several different conventional methods. The one standard method is cloning from human Dorsal Root Ganglion (DRG) or kidney according to the methods such as described in the journal article; Nature, 389, pp 816-824, 1997. Alternatively VR1 receptors highly expressing human keratinocytes are also known and published in the journal article (Biochemical and Biophysical Research Communications, 291, pp 124-129, 2002). […] Furthermore, the method to up regulate human VR1 gene, which is usually a silent gene or don't produce detectable level of VR1 receptors, is also available to obtain propriety cells. Such genetic modification method was described in detail; Nat. Biotechnol., 19, pp 440-445, 2001.
The cells that express human VR1 receptors were maintained in culture flask at 37° C. in an environment containing 5% CO2 until use in the assay. The intracellular Ca^2+ imaging assay to determine VR1 antagonistic activities were done by following procedures.
The culture medium was removed from the flask and fura-2/AM fluorescent calcium indicator was added to the flask at a concentration of 5 μM in the medium. The flask was placed in CO2 incubator and incubated for 1 hour. Then the cells expressing the human VR1 receptors were detached from the flask follow by washing with phosphate buffer saline, PBS(−) and re-suspended in assay buffer. The 80 μl of aliquot of cell suspension (3.75×10^5 cells/ml) was added to the assay plate and the cells were spun down by centrifuge (950 rpm, 20° C., 3 minutes).
The compounds of the examples were tested in the Human VR1 antagonist assay described above.
The capsaicin-induced changes in the intracellular calcium concentration were monitored using FDSS 6000 (Hamamatsu Photonics, Japan), a fluorometric imaging system. The cell suspension in Krebs-Ringer HEPES (KRH) buffer (115 mM NaCl, 5.4 mM KCl, 1 mM MgSO4, 1.8 mM CaCl2, 11 mM D-Glucose, 25 mM HEPES, 0.96 mM Na2HPO4, pH 7.3) were pre-incubated with varying concentrations of the test compounds or KRH buffer (buffer control) for 15 minutes at room temperature under the dark condition. Then capsaicin solution, which gives 300 nM in assay mixture, was automatically added to the assay plate by the FDSS 6000.
The acid-induced changes in the intracellular calcium concentration were monitored using FDSS 6000 (Hamamatsu Photonics, Japan), a fluorometric imaging system. The cell suspension in resting buffer (HBSS supplemented with 10 mM HEPES, pH 7.4) were pre-incubated with varying concentrations of the test compounds or resting buffer (buffer control) for 15 minutes at room temperature under the dark condition. The cells were automatically added the stimulating solution (HBSS supplemented with MES, final assay buffer pH5.8) by the FDSS 6000.
The monitoring of the changes in the fluorescence signals (λex=340 nm/380 nm, λem=510-520 nm) was initiated at 1 minute prior to the addition of capsaicin solution or acidic buffer and continued for 5 minute.
`Oc1cc2c(cc1O)CN(C(=S)NCCc1ccc(Cl)cc1)CCC2` [Capsazepine, reference compound] returned a half-inhibitory concentration (IC50) of 237 to 455 nM. The same measure for `COc1cc(Cl)c([C@@H](C)NC(=O)c2ccc3cc(C(C)(C)C)ccc3c2)cc1C` [Example A1, 6-tert-Butyl-N-[(1R)-1-(2-chloro-4-methoxy-5-methylphenyl)ethyl]-2-naphthamide]: 93.5 nM; for `Cc1cc([C@@H](C)NC(=O)c2ccc3cc(C(C)(C)C)ccc3c2)c(Cl)cc1O` [Example A2, 6-tert-Butyl-N-[(1R)-1-(2-chloro-4-hydroxy-5-methylphenyl)ethyl]-2-naphthamide]: 34.2 nM. Take `COc1cc(CNC(=O)c2ccc3cc(C(C)(C)C)ccc3n2)c(Cl)cc1O` [Example B1]: the half-maximal inhibitory concentration (IC50) amounted to 590 nM. The same measure for `Cc1cc([C@@H](C)NC(=O)c2cnc3cc(C(F)(F)F)ccc3c2)c(Cl)cc1O` [Example C2, N-[(1R)-1-(2-Chloro-4-hydroxy-5-methylphenyl)ethyl]-7-(trifluoromethyl)quinoline-3-carboxamide]: 667 nM. In the case of `COc1cc([C@@H](C)NC(=O)c2ccc3nc(C(C)(C)C)ccc3c2)c(Cl)cc1O` [Example D1, 2-tert-Butyl-[(1R)-1-(2-chloro-4-hydroxy-5-methoxyphenyl)ethyl]quinoline-6-carboxamide], inhibition was half-maximal at 74.1 nM (IC50). In turn, `COc1cc(CNC(=O)c2ccc3nc(C(C)(C)C)ccc3c2)c(Cl)cc1O` [Example D2, 2-tert-Butyl-N-(2-chloro-4-hydroxy-5-methoxybenzyl)quinoline-6-carboxamide] returned a half-maximal inhibitory concentration (IC50) of 176 nM.

With `COc1cc(CNC(=O)c2ccc3nc(C(C)(C)C)ccc3c2)c(Br)cc1O` [Example D3, N-(2-Bromo-4-hydroxy-5-methoxybenzyl)-2-tert-butylquinoline-6-carboxamide], half-maximal inhibition (IC50) required 403 nM.

`COc1cc(Cl)c([C@@H](C)NC(=O)c2ccc3nc(C(C)(C)C)ccc3c2)cc1C` [Example D4, 2-tert-Butyl-N-[(1R)-1-(2-chloro-4-methoxy-5-methylphenyl)ethyl]quinoline-6-carboxamide] registered an IC50 of 270 nM.

For the compound `Cc1cc([C@@H](C)NC(=O)c2ccc3nc(C(C)(C)C)ccc3c2)c(Cl)cc1O` [Example D5, 2-tert-butyl-N-[(1R)-1-(2-chloro-4-hydroxy-5-methylphenyl)ethyl]5 quinoline-6-carboxamide], inhibition was half-maximal at 331 nM (IC50). `Cc1cc([C@H](C)NC(=O)c2ccc3nc(C(C)(C)C)ccc3c2)c(Cl)cc1O` [Example D7, 2-tert-Butyl-N-[(1S)-1-(2-chloro-4-hydroxy-5-methylphenyl)ethyl]quinoline-6-carboxamide]: half-maximal inhibition (IC50) was put at 31.9 nM. The same measure for `C[C@@H](NC(=O)c1ccc2nc(C(C)(C)C)ccc2c1)c1ccc(CO)cc1` [Example D8, 2-tert-Butyl-N-{(1R)-1-[4-(hydroxymethyl)phenyl]ethyl}quinoline-6-carboxamide]: 434 nM; for `Cc1cc(CNC(=O)c2ccc3nc(C(C)(C)C)ccc3c2)c(Cl)cc1O` [Example D10, 2-tert-Butyl-N-(2-chloro-4-hydroxy-5-methylbenzyl)quinoline-6-carboxamide]: 311 nM; for `Cc1cc(CNC(=O)c2ccc3nc(C(C)(C)C)ccc3c2)c(F)cc1O` [Example D11, 2-tert-Butyl-N-(2-fluoro-4-hydroxy-5-methylbenzyl)quinoline-6-carboxamide]: 501 nM.

Turning to `COc1cc(Cl)c([C@@H](C)NC(=O)c2ccc3nc(C(C)(C)C(F)(F)F)ccc3c2)cc1C` [Example D12, N-[(1R)-1-(2-Chloro-4-methoxy-5-methylphenyl)ethyl]-2-(2,2,2-trifluoro-1,1-dimethylethyl)quinoline-6-carboxamide], it took 181 nM to reach half-maximal inhibition (IC50). The compound `Cc1cc([C@@H](C)NC(=O)c2ccc3nc(C(C)(C)C(F)(F)F)ccc3c2)c(Cl)cc1O` [Example D13, N-[(1R)-1-(2-Chloro-4-hydroxy-5-methylphenyl)ethyl]-2-(2,2,2-trifluoro-1,1-dimethylethyl)quinoline-6-carboxamide] had an IC50 of 31.8 nM. On to `Cc1cc(C(C)NC(=O)c2ccc3nc(C(C)(C)C(F)(F)F)ccc3c2)c(F)cc1CO` (stereo not drawn) [Example D14, N-{1-[2-Fluoro-4-(hydroxymethyl)-5-methylphenyl]ethyl}-2-(2,2,2-trifluoro-1,1-dimethylethyl)quinoline-6-carboxamide], for which it took 65.5 nM to reach half-maximal inhibition (IC50). As to `COc1cc([C@@H](C)NC(=O)c2ccc3nc(C(C)(C)C)ccc3c2)ccc1O` [Example D15, 2-tert-Butyl-N-[(1R)-1-(4-hydroxy-3-methoxyphenyl)ethyl]quinoline-6-carboxamide], the midpoint of inhibition, the IC50, lay at 254 nM.
